Patent US12421210B2, “Fused bicyclic heterocycles as therapeutic agents” (NEW YORK UNIVERSITY, priority 2018, dated 2025)

Target: human NAMPT enzyme (His-hNAMPT) (Homo sapiens (Human), UniProt P43490)
Assay: NAMPT enzymatic inhibition assay (fluorescence, NADH product)
Format: biochemical
Conditions: [BPS]; read-out: NAMPT IC50 (μM) [BPS]

Chain of human NAMPT enzyme (His-hNAMPT) (P43490 whole entry): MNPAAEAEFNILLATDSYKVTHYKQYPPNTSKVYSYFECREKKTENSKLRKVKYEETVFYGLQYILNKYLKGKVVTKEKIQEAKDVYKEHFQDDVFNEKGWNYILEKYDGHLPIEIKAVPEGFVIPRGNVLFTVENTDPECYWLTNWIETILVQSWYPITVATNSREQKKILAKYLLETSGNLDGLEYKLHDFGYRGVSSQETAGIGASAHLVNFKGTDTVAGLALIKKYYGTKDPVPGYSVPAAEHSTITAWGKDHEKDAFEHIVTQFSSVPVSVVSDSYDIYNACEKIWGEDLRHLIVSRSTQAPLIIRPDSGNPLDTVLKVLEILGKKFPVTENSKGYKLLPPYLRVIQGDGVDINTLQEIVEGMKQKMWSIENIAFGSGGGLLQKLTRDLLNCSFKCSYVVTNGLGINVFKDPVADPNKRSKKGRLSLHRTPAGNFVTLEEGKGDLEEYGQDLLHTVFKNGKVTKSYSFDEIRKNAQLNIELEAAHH

First: CC(C)(C)OC(=O)N1C[C@@H]2[C@@H](CCNC(=O)c3cc4ccncc4s3)[C@@H]2C1 [Example 3]
Second: CC(C)(C)OC(=O)N1C[C@@H]2[C@@H](CCNC(=O)/C=C/c3cccnc3)[C@@H]2C1 [Example 1, (1R,5S,6s)-tert-butyl 6-(2-((E)-3-(pyridin-3-yl)acrylamido)ethyl)-3-azabicyclo[3.1.0]hexane-3-carboxylate]
The IC50 of the first is higher: 0.01 to 0.49 µM for the first, < 0.01 µM for the second. The second is the more potent here.

First: O=C(NCC[C@@H]1[C@H]2CN(c3ccccc3)C(=O)[C@@H]12)c1cc2ccncc2o1 (racemic) [Example 260, N-(2-((1R,5S,6S)-2-oxo-3-phenyl-3-azabicyclo[3.1.0]hexan-6-yl)ethyl)furo[2,3-c]pyridine-2-carboxamide and N-(2-((1S,5R,6R)-2-oxo-3-phenyl-3-azabicyclo[3.1.0]hexan-6-yl)ethyl)furo[2,3-c]pyridine-2-carboxamide]
Second: O=C(/C=C/c1cccnc1)NCC[C@@H]1[C@H]2CN(c3ccccc3)C[C@@H]12 [Example 117, (E)-N-(2-((1R,5S,6s)-3-phenyl-3-azabicyclo[3.1.0]hexan-6-yl)ethyl)-3-(pyridin-3-yl)acrylamide]
The IC50 of the first is higher: 0.5 to 0.99 µM for the first, 0.01 to 0.49 µM for the second. The second is the more potent here.

First: CC1(OC(=O)N2C[C@@H]3[C@@H](CCNC(=O)c4cc5cc(N)ncc5s4)[C@@H]3C2)COC1 [Example 74, (1R,5S,6s)-3-methyloxetan-3-yl 6-(2-(5-aminothieno[2,3-c]pyridine-2-carboxamido)ethyl)-3-azabicyclo[3.1.0]hexane-3-carboxylate]
Second: CC1(OC(=O)N2C[C@@H]3[C@@H](CCNC(=O)/C=C/c4ccncc4)[C@@H]3C2)COC1 [Example 35, (1R,5S,6s)-3-methyloxetan-3-yl 6-(2-((E)-3-(pyridin-4-yl)acrylamido)ethyl)-3-azabicyclo[3.1.0]hexane-3-carboxylate]
The IC50 of the first is lower: 0.01 to 0.49 µM for the first, 1 to 29 µM for the second. The first is the more potent here.

Nc1ccc(/C=C/C(=O)NCC[C@@H]2[C@H]3CN(C(=O)Nc4ccccc4)C[C@@H]23)cn1 [Example 31, (1R,5S,6s)-6-(2-((E)-3-(6-aminopyridin-3-yl)acrylamido)ethyl)-N-phenyl-3-azabicyclo[3.1.0]hexane-3-carboxamide] and Nc1ccc(/C=C/C(=O)NCC[C@@H]2[C@H]3CN(C(=O)Oc4ccccc4)C[C@@H]23)cn1 [Example 40, (1R,5S,6s)-phenyl 6-(2-((E)-3-(6-aminopyridin-3-yl)acrylamido)ethyl)-3-azabicyclo[3.1.0]hexane-3-carboxylate] fall in the same range of IC50: 0.01 to 0.49 µM for the first, 0.01 to 0.49 µM for the second.

COc1cccc(N2C[C@@H]3[C@@H](CCNC(=O)/C=C/c4cccnc4)[C@@H]3C2)c1 [Example 129, (E)-N-(2-((1R,5S,6s)-3-(3-methoxyphenyl)-3-azabicyclo[3.1.0]hexan-6-yl)ethyl)-3-(pyridin-3-yl)acrylamide] and O=C(/C=C/c1cccnc1)NCC[C@@H]1[C@H]2CN(S(=O)(=O)c3ccccc3)C[C@@H]12 [Example 23, (E)-N-(2-((1R,5S,6s)-3-(phenylsulfonyl)-3-azabicyclo[3.1.0]hexan-6-yl)ethyl)-3-(pyridin-3-yl)acrylamide] fall in the same range of IC50: 0.01 to 0.49 µM for the first, 0.01 to 0.49 µM for the second.

O=C(NCC[C@@H]1[C@H]2CN(C(=O)CC3CCOCC3)C[C@@H]12)c1cc2ccncc2o1 [Example 99, N-(2-((1R,5S,6s)-3-(2-(tetrahydro-2H-pyran-4-yl)acetyl)-3-azabicyclo[3.1.0]hexan-6-yl)ethyl)furo[2,3-c]pyridine-2-carboxamide] and O=C(NCC[C@@H]1[C@H]2CN(C(=O)OC3CCOCC3)C[C@@H]12)c1ccc2nccn2c1 [Example 67, (1R,5S,6s)-tetrahydro-2H-pyran-4-yl 6-(2-(imidazo[1,2-a]pyridine-6-carboxamido)ethyl)-3-azabicyclo[3.1.0]hexane-3-carboxylate] fall in the same range of IC50: 0.01 to 0.49 µM for the first, 0.01 to 0.49 µM for the second.

First: CC(C)(C)OC(=O)N1CCC2CC(CNC(=O)NCc3cccnc3)CC2C1 (stereo not drawn) [Example 271, tert-butyl 6-((3-(pyridin-3-ylmethyl)ureido)methyl)hexahydro-1H-cyclopenta[c]pyridine-2(3H)-carboxylate]
Second: CC(C)(C)OC(=O)N1C[C@@H]2[C@H](C1)[C@H]2CC1(NC(=O)/C=C/c2cccnc2)CC1 [Example 242, (1R,5S,6s)-tert-butyl 6-((1-((E)-3-(pyridin-3-yl)acrylamido)cyclopropyl)methyl)-3-azabicyclo[3.1.0]hexane-3-carboxylate]
The IC50 of the first is lower: 1 to 29 µM for the first, > 30 µM for the second. The first is the more potent here.

Compared with O=C(NCC[C@@H]1[C@H]2CN(S(=O)(=O)C3CCOCC3)C[C@@H]12)c1cnc2nccn2c1 [Example 80, N-(2-((1R,5S,6s)-3-((tetrahydro-2H-pyran-4-yl)sulfonyl)-3-azabicyclo[3.1.0]hexan-6-yl)ethyl)imidazo[1,2-a]pyrimidine-6-carboxamide], Cc1nc(C)c(C(=O)N2C[C@@H]3[C@@H](CCNC(=O)/C=C/c4ccc(N)nc4)[C@@H]3C2)o1 [Example 87, (E)-3-(6-aminopyridin-3-yl)-N-(2-((1R,5S,6s)-3-(2,4-dimethyloxazole-5-carbonyl)-3-azabicyclo[3.1.0]hexan-6-yl)ethyl)acrylamide] is lower in IC50: 1 to 29 µM for the first, 0.01 to 0.49 µM for the second.

For Nc1ccc(/C=C/C(=O)NCC[C@@H]2[C@H]3CN(c4nc5ccccc5s4)C[C@@H]23)cn1 [Example 190, (E)-3-(6-aminopyridin-3-yl)-N-(2-((1R,5S,6s)-3-(benzo[d]thiazol-2-yl)-3-azabicyclo[3.1.0]hexan-6-yl)ethyl)acrylamide], the IC50 was 0.01 to 0.49 µM.

Same assay, conditions: [HDB]; read-out: NAMPT IC50 (μM) [HDB]

O=C(/C=C/c1cccnc1)NCC[C@@H]1[C@H]2CN(c3nc(OC4CCOCC4)ncc3F)C[C@@H]12 [Example 305, (E)-N-(2-((1R,5S,6s)-3-(5-fluoro-2-((tetrahydro-2H-pyran-4-yl)oxy)pyrimidin-4-yl)-3-azabicyclo[3.1.0]hexan-6-yl)ethyl)-3-(pyridin-3-yl)acrylamide] and NC(=O)COc1ncc(F)c(N2C[C@@H]3[C@@H](CCNC(=O)/C=C/c4cccnc4)[C@@H]3C2)n1 [Example 285, (E)-N-(2-((1R,5S,6s)-3-(2-(2-amino-2-oxoethoxy)-5-fluoropyrimidin-4-yl)-3-azabicyclo[3.1.0]hexan-6-yl)ethyl)-3-(pyridin-3-yl)acrylamide] cannot be ordered by IC50: < 0.01 µM for the first, < 0.01 µM for the second.

First: NC(=O)C(c1ccccc1)N1C[C@@H]2[C@@H](CCNC(=O)/C=C/c3cccnc3)[C@@H]2C1 (stereo partly drawn) [Example 283, (E)-N-(2-((1R,5S,6s)-3-(2-amino-2-oxo-1-phenylethyl)-3-azabicyclo[3.1.0]hexan-6-yl)ethyl)-3-(pyridin-3-yl)acrylamide]
Second: O=C(/C=C/c1cccnc1)NCC[C@@H]1[C@H]2CN(S(=O)(=O)c3ccccc3)C[C@@H]12 [Example 23, (E)-N-(2-((1R,5S,6s)-3-(phenylsulfonyl)-3-azabicyclo[3.1.0]hexan-6-yl)ethyl)-3-(pyridin-3-yl)acrylamide]
The IC50 of the first is lower: < 0.01 µM for the first, 0.01 to 0.49 µM for the second. The first is the more potent here.

First: CC(c1cccc(F)c1)N1C[C@@H]2[C@@H](CCNC(=O)/C=C/c3cccnc3)[C@@H]2C1 (stereo partly drawn) [Example 323, (E)-N-(2-((1R,5S,6s)-3-(1-(3-fluorophenyl)ethyl)-3-azabicyclo[3.1.0]hexan-6-yl)ethyl)-3-(pyridin-3-yl)acrylamide]
Second: CC(c1ccc(F)cc1)N1C[C@@H]2[C@@H](CCNC(=O)/C=C/c3cccnc3)[C@@H]2C1 (stereo partly drawn) [Example 322, (E)-N-(2-((1R,5S,6s)-3-(1-(4-fluorophenyl)ethyl)-3-azabicyclo[3.1.0]hexan-6-yl)ethyl)-3-(pyridin-3-yl)acrylamide]
The IC50 of the first is lower: < 0.01 µM for the first, 0.01 to 0.49 µM for the second. The first is the more potent here.

First: Cc1cc(N2C[C@@H]3[C@@H](CCNC(=O)/C=C/c4cccnc4)[C@@H]3C2)cc(C)n1 [Example 307, (E)-N-(2-((1R,5S,6s)-3-(2,6-dimethylpyridin-4-yl)-3-azabicyclo[3.1.0]hexan-6-yl)ethyl)-3-(pyridin-3-yl)acrylamide]
Second: O=C(/C=C/c1cccnc1)NCC[C@@H]1[C@H]2CN(c3cc(Cl)cc(Cl)c3)C[C@@H]12 [Example 148, (E)-N-(2-((1R,5S,6s)-3-(3,5-dichlorophenyl)-3-azabicyclo[3.1.0]hexan-6-yl)ethyl)-3-(pyridin-3-yl)acrylamide]
The IC50 of the first is higher: 0.01 to 0.49 µM for the first, < 0.01 µM for the second.

CC(c1ccc(F)cc1)N1C[C@@H]2[C@@H](CCNC(=O)/C=C/c3ccc(N)nc3)[C@@H]2C1 (stereo partly drawn) [Example 340, (E)-3-(6-aminopyridin-3-yl)-N-(2-((1R,5S,6s)-3-(1-(4-fluorophenyl)ethyl)-3-azabicyclo[3.1.0]hexan-6-yl)ethyl)acrylamide] and O=C(/C=C/c1cccnc1)NCC[C@@H]1[C@H]2CN(c3ncc(C(F)(F)F)cn3)C[C@@H]12 [Example 162, (E)-3-(pyridin-3-yl)-N-(2-((1R,5S,6s)-3-(5-(trifluoromethyl)pyrimidin-2-yl)-3-azabicyclo[3.1.0]hexan-6-yl)ethyl)acrylamide] fall in the same range of IC50: 0.01 to 0.49 µM for the first, 0.01 to 0.49 µM for the second.

Compared with O=C(NCC[C@@H]1[C@H]2CN(c3cccc(F)c3)C[C@@H]12)c1cc2ccncc2o1 [Example 197, N-(2-((1R,5S,6s)-3-(3-fluorophenyl)-3-azabicyclo[3.1.0]hexan-6-yl)ethyl)furo[2,3-c]pyridine-2-carboxamide], O=C(CCc1cccnc1)NCC[C@@H]1[C@H]2CN(c3nc(Cl)ncc3F)C[C@@H]12 [Example 207, N-(2-((1R,5S,6s)-3-(2-chloro-5-fluoropyrimidin-4-yl)-3-azabicyclo[3.1.0]hexan-6-yl)ethyl)-3-(pyridin-3-yl)propanamide] is lower in IC50: 0.01 to 0.49 µM for the first, < 0.01 µM for the second.

O=C(NCC[C@@H]1[C@H]2CN(C(=O)OC3CCOCC3)C[C@@H]12)c1cc2ccncc2s1 [Example 85, (1R,5S,6s)-tetrahydro-2H-pyran-4-yl 6-(2-(thieno[2,3-c]pyridine-2-carboxamido)ethyl)-3-azabicyclo[3.1.0]hexane-3-carboxylate] and O=C(/C=C/c1cccnc1)NCC[C@@H]1[C@H]2CN(c3ncc4c(n3)CCOC4)C[C@@H]12 [Example 166, (E)-N-(2-((1R,5S,6s)-3-(7,8-dihydro-5H-pyrano[4,3-d]pyrimidin-2-yl)-3-azabicyclo[3.1.0]hexan-6-yl)ethyl)-3-(pyridin-3-yl)acrylamide] fall in the same range of IC50: 0.01 to 0.49 µM for the first, 0.01 to 0.49 µM for the second.

O=C(NCC[C@@H]1[C@H]2CN(c3nc(Cl)ncc3F)C[C@@H]12)N1Cc2ccncc2C1 [Example 226, N-(2-((1R,5S,6s)-3-(2-chloro-5-fluoropyrimidin-4-yl)-3-azabicyclo[3.1.0]hexan-6-yl)ethyl)-1H-pyrrolo[3,4-c]pyridine-2(3H)-carboxamide] and O=C(COc1cccnc1)NCC[C@@H]1[C@H]2CN(c3nc(Cl)ncc3F)C[C@@H]12 [Example 219, N-(2-((1R,5S,6s)-3-(2-chloro-5-fluoropyrimidin-4-yl)-3-azabicyclo[3.1.0]hexan-6-yl)ethyl)-2-(pyridin-3-yloxy)acetamide] fall in the same range of IC50: 0.01 to 0.49 µM for the first, 0.01 to 0.49 µM for the second.
